According to ChEMBL document CHEMBL1131345, “Synthesis of N-(1-ethyl-4-methylhexahydro-1,4-diazepin-6-yl)nicotinamides and their affinities for 5-HT3 and dopamine D2 receptors” (Bioorg Med Chem Lett, 1998):

Key:
[1] = target: T1, Serotonin 3 (5-HT3) receptor (Rattus norvegicus, UniProt P35563+Q9JJ16); experiment: Inhibition of [3H]GR-65630 binding to rat cortical membrane 5-hydroxytryptamine 3 receptor
T1 sequence (P35563 whole entry): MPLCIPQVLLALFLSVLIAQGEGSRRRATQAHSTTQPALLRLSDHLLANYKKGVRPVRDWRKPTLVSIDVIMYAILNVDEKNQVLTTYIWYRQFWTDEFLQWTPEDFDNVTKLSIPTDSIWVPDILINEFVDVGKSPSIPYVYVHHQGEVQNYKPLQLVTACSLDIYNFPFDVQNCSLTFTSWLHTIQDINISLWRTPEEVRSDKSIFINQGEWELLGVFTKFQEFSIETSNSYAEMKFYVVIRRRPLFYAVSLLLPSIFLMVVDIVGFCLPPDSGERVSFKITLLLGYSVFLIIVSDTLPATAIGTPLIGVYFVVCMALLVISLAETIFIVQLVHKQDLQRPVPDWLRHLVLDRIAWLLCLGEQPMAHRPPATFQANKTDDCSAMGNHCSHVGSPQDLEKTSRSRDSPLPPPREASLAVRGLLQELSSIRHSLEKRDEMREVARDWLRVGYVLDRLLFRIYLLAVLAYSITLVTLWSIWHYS
T1 sequence (Q9JJ16 whole entry): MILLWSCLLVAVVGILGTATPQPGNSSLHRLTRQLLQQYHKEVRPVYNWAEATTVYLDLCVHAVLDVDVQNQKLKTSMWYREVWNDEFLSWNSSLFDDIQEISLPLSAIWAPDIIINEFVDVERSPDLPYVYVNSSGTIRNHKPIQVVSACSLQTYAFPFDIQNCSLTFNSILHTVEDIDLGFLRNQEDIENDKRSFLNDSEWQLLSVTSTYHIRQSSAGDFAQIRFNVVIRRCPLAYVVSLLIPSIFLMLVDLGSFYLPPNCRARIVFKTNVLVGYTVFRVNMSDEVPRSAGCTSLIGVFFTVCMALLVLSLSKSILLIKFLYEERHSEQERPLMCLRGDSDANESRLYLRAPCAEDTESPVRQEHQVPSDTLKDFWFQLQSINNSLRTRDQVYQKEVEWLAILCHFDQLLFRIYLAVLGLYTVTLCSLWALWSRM

D(2) dopamine receptor = D(2) dopamine receptor (Rattus norvegicus, UniProt P61169); experiment: Inhibition of [3H]- spiperone binding to rat brain Dopamine receptor D2
D(2) dopamine receptor, sequence (P61169 whole entry): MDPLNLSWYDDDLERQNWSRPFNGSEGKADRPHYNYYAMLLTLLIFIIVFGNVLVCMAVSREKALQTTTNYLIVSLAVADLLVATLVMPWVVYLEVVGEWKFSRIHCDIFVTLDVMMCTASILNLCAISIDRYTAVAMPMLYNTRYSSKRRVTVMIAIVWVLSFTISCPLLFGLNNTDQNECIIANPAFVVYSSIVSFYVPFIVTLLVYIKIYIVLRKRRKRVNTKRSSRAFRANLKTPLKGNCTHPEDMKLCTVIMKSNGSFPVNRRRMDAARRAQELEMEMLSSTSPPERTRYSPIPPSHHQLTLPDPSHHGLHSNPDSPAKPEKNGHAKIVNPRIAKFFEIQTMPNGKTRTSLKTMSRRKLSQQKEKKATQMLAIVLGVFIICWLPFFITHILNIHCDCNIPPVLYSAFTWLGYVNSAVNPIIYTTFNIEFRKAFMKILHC

| IC50 [1] | IC50 (D(2) dopamine receptor) | SMILES |
| --- | --- | --- |
| 0.0038 µM | 0.048 µM | CCNc1nc(OC)c(C(=O)NC2CN(C)CCN(CC)C2)cc1Br (stereo not drawn) |
| 0.0051 µM | 0.386 µM | CCN1CCN(C)CC(NC(=O)c2cc(Cl)c(N)nc2OC)C1 (stereo not drawn) |
| 0.0099 µM | 0.075 µM | CCN1CCN(C)CC(NC(=O)c2cc(Br)c(N(C)C)nc2OC)C1 (stereo not drawn) |
| 0.002 µM | 0.076 µM | CCNc1nc(OC)c(C(=O)NC2CN(C)CCN(CC)C2)cc1Cl (stereo not drawn) |
| 0.0016 µM | 0.018 µM | CCN1CCN(C)C[C@@H](NC(=O)c2cc(Cl)c(NC)nc2OC)C1 |
| 0.0013 µM | 0.043 µM | CCN1CCN(C)CC(NC(=O)c2cc(Cl)c(NC)nc2OC)C1 (stereo not drawn) |
| 0.0029 µM | 0.035 µM | CCN1CCN(C)C[C@@H](NC(=O)c2cc(Cl)c(NC)cc2OC)C1 |
| 0.0012 µM | 0.081 µM | CCN1CCN(C)C[C@H](NC(=O)c2cc(Br)c(NC)nc2OC)C1 |
| 0.001 µM | 0.023 µM | CCN1CCN(C)CC(NC(=O)c2cc(Br)c(NC)nc2OC)C1 (stereo not drawn) |
| 0.0011 µM | 0.012 µM | CCN1CCN(C)C[C@@H](NC(=O)c2cc(Br)c(NC)nc2OC)C1 |
| 0.0021 µM | 0.202 µM | CCN1CCN(C)C[C@H](NC(=O)c2cc(Cl)c(NC)nc2OC)C1 |
| 0.88 µM |  | CCN(CC)CCNC(=O)c1cc(Cl)c(N)cc1OC [METOCLOPRAMIDE] |
